The values below come from US9815839B2, “N-(1-(substituted-phenyl)ethyl)-9H-purin-6-amines as PI3K inhibitors” (Incyte Corporation, priority 2010, dated 2017).

Structures can show the parent of a compound that is named as a salt.

Experiment [1] relates to Pfeiffer cell line (diffuse large B cell lymphoma). Put plainly: Pfeiffer cell proliferation assay. The format is cell-based. The settings on record: Homo sapiens, Pfeiffer, Pfeiffer cells, 3-4 days plus 12 hours [3H]-thymidine incorporation. The method, boiled down: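 Pfeiffer DLBCL cells grown in RPMI/10% FBS at 2×10^3 cells/well in ultra-low-binding plates with a range of compound concentrations for 3-4 days. [3H]-thymidine (1 μCi/well) was then added for 12 h more. Incorporation was read by filtration and scintillation counting.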

The next experiment deals with T1, PI3Kδ (p110δ/p85α) (Homo sapiens, UniProt O00329).
T1 construct: purchased Millipore (Bedford, Mass.)
T1 sequence (O00329 whole entry, species assumed): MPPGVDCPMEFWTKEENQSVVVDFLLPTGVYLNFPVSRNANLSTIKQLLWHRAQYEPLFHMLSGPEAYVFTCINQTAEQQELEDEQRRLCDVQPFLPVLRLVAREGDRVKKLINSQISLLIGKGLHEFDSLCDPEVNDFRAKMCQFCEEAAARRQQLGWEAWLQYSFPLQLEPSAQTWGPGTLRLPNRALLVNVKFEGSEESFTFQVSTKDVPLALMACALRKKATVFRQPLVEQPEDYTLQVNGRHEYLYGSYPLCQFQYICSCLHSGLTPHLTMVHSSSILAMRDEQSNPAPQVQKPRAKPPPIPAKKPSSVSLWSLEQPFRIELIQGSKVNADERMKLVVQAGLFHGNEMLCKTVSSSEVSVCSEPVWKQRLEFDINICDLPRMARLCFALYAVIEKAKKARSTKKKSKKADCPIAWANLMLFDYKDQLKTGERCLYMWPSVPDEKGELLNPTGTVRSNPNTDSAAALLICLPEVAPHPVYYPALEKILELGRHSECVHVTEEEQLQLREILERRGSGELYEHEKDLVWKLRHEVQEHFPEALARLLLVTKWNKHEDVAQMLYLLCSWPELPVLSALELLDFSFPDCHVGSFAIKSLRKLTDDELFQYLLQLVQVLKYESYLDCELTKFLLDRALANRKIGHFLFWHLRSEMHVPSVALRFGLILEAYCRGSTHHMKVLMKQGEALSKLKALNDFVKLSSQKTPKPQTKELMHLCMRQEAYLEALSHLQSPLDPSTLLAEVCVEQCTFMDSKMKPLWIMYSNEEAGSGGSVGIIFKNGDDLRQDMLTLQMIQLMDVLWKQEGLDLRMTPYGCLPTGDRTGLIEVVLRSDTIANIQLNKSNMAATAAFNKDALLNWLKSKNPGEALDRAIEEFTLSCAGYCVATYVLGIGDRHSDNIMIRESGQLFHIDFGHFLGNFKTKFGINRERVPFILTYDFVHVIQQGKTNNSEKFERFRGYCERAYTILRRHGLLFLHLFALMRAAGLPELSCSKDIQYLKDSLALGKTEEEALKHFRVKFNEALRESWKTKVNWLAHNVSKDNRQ
T1 sequence (P27986 whole entry partner, species assumed): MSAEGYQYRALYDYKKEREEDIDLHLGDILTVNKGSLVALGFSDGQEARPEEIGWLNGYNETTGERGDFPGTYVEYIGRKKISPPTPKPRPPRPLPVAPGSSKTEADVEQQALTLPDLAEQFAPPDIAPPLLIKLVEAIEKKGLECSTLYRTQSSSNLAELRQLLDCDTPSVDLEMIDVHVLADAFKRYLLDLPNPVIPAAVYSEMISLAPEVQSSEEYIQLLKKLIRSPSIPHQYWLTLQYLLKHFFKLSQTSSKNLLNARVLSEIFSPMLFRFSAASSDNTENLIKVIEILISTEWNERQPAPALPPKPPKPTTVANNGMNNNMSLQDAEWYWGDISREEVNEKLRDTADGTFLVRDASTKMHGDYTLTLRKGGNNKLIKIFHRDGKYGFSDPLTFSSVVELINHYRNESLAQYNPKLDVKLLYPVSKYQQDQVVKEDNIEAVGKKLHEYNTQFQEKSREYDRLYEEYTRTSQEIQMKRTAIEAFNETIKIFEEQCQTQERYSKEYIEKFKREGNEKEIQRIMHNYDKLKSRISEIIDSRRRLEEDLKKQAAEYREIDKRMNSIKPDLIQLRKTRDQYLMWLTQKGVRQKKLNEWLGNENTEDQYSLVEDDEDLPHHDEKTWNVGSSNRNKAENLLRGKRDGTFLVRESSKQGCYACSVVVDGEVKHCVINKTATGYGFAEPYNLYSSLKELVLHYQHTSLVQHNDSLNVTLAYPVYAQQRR
The experiment can be described thus: PI3Kδ scintillation proximity assay. Format: biochemical. The settings on record: 20 μM ATP, 4 nM PI3Kδ. In short, it runs like this: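 Radiometric SPA: product captured on WGA beads after EDTA quench and counted, IC50 fitted against log inhibitor concentration. Reactions ran 210 min at room temperature with 4 nM PI3Kδ (p110δ/p85α), 20 μM each PIP2 and ATP plus 33P-ATP, pH 6.7 MOPS buffer, 0.5% DMSO final.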
For orientation: Scintillation proximity formats need no separation of bound from free tracer.

Usually IC50 stands for the concentration needed to halve the response being measured. Take `COc1c(C(C)Nc2ncnc3[nH]cnc23)cc(Cl)c(C)c1-c1cc(F)cc(C(N)=O)c1` (stereo not shown) [Example 110, 3′-chloro-5-fluoro-6′-methoxy-2′-methyl-5′-[1-(9H-purin-6-ylamino)ethyl]biphenyl-3-carboxamide]: the IC50 in experiment [1] was 100 to 500 nM; at PI3Kδ (p110δ/p85α), below 50 nM.

With `COc1c(C(C)Nc2ncnc3[nH]cnc23)cc(Cl)c(C)c1-c1cncc(C(=O)N2CCOCC2)c1` (stereo not shown) [Example 111, N-(1-{5-chloro-2-methoxy-4-methyl-3-[5-(morpholin-4-ylcarbonyl)pyridin-3-yl]phenyl}ethyl)-9H-purin-6-amine], the figures for the IC50 (in experiment [1]; against PI3Kδ (p110δ/p85α)) were below 100 nM and below 50 nM, respectively.

`COc1c(C(C)Nc2ncnc3[nH]cnc23)cc(Cl)c(C)c1-c1ccc(NC(C)=O)nc1` (stereo not shown) [Example 112, N-(5-{3-chloro-6-methoxy-2-methyl-5-[1-(9H-purin-6-ylamino)ethyl]phenyl}-pyridin-2-yl)acetamide]: the IC50 in experiment [1] was below 100 nM; on PI3Kδ (p110δ/p85α), below 50 nM.

Turning to `CC(Nc1ncnc2[nH]cnc12)c1cc(Cl)cc(-c2cn[nH]c2)c1-c1cc(F)cc(F)c1` (stereo not shown) [Example 124, N-{1-[4-Chloro-3′,5′-difluoro-6-(1H-pyrazol-4-yl)biphenyl-2-yl]ethyl}-9H-purin-6-amine], the IC50 was below 100 nM in experiment [1] and below 50 nM at PI3Kδ (p110δ/p85α).

`COc1c(C(C)Nc2ncnc3[nH]cnc23)cc(Cl)c(C)c1C1CN(C(C)=O)C1` (stereo not shown) [Example 166, N-{1-[3-(1-Acetylazetidin-3-yl)-5-chloro-2-methoxy-4-methylphenyl]ethyl}-9H-purin-6-amine trifluoroacetate]: the figures for the IC50 (in experiment [1]; against PI3Kδ (p110δ/p85α)) were below 100 nM and below 50 nM, respectively.

On to `COc1c(C(C)Nc2ncnc3[nH]cnc23)cc(Cl)c(C)c1C1CN(C(C)C)C1` (stereo not shown) [Example 170, N-{1-[5-Chloro-3-(1-isopropylazetidin-3-yl)-2-methoxy-4-methylphenyl]ethyl}-9H-purin-6-amine bis(trifluoroacetate)], for which the results for the IC50 (in experiment [1]; on PI3Kδ (p110δ/p85α)) were below 100 nM and below 50 nM, respectively.

For `COc1c(C(C)Nc2ncnc3[nH]cnc23)cc(Cl)c(C)c1-c1cnn(C2CCNCC2)c1` (stereo not shown) [Example 174, N-{1-[5-chloro-2-methoxy-4-methyl-3-(1-piperidin-4-yl-1H-pyrazol-4-yl)phenyl]ethyl}-9H-purin-6-amine tris(trifluoroacetate)], the IC50 was below 100 nM in experiment [1] and below 50 nM against PI3Kδ (p110δ/p85α).

Take `COc1c(C(C)Nc2ncnc3[nH]cnc23)cc(Cl)c(C)c1C1CCN(C)CC1` (stereo not shown) [Example 176, N-{1-[5-Chloro-2-methoxy-4-methyl-3-(1-methylpiperidin-4-yl)phenyl]ethyl}-9H-purin-6-amine]: the IC50 in experiment [1] is below 100 nM; against PI3Kδ (p110δ/p85α), below 50 nM.

In the case of `COc1c(C(C)Nc2ncnc3[nH]cnc23)cc(Cl)c(C)c1-c1cccc(C(=O)N(C)C)n1` (stereo not shown) [Example 177, 6-{3-chloro-6-methoxy-2-methyl-5-[1-(9H-purin-6-ylamino)ethyl]phenyl}-N,N-dimethylpyridine-2-carboxamide bis(2,2,2-trifluoroacetate)], the IC50 is below 100 nM in experiment [1] and below 50 nM against PI3Kδ (p110δ/p85α).

On to `COc1c(C(C)Nc2ncnc3[nH]cnc23)cc(Cl)c(C)c1-c1cc(C(=O)N(C)C)cnn1` (stereo not shown) [Example 178, 6-{3-chloro-6-methoxy-2-methyl-5-[1-(9H-purin-6-ylamino)ethyl]phenyl}-N,N-dimethylpyridazine-4-carboxamide bis(2,2,2-trifluoroacetate)], for which the IC50 in experiment [1] was below 100 nM; at PI3Kδ (p110δ/p85α) it was below 50 nM.

For the compound `CCOc1c(C(C)Nc2ncnc3[nH]cnc23)cc(Cl)c(C#N)c1-c1ccc(C(=O)N(C)C)nc1` (stereo not shown) [Example 179, 5-{3-chloro-2-cyano-6-ethoxy-5-[1-(9H-purin-6-ylamino)ethyl]phenyl}-N,N-dimethylpyridine-2-carboxamide bis(2,2,2-trifluoroacetate)], the IC50 in experiment [1] was below 100 nM; at PI3Kδ (p110δ/p85α), below 50 nM.

For the compound `CCOc1c(C(C)Nc2ncnc3[nH]cnc23)cc(Cl)c(C#N)c1-c1ccc(C(C)O)nc1` (stereo not shown) [Example 180, 6-chloro-3-ethoxy-2-[6-(1-hydroxyethyl)pyridin-3-yl]-4-[1-(9H-purin-6-ylamino)ethyl]benzonitrile bis(2,2,2-trifluoroacetate)], the IC50 in experiment [1] was below 100 nM; at PI3Kδ (p110δ/p85α), below 50 nM.

For the compound `COc1c(C(C)Nc2ncnc3[nH]cnc23)cc(Cl)c(Cl)c1C1CN(C(C)C)C1` (stereo not shown) [Example 194, N-{1-[4,5-Dichloro-3-(1-isopropylazetidin-3-yl)-2-methoxyphenyl]ethyl}-9H-purin-6-amine bis(trifluoroacetate)], the IC50 was below 100 nM in experiment [1] and below 50 nM on PI3Kδ (p110δ/p85α).

Take `COc1c(C(C)Nc2ncnc3[nH]cnc23)cc(Cl)c(Cl)c1C1CN(C(C)=O)C1` (stereo not shown) [Example 195, N-{1-[3-(1-Acetylazetidin-3-yl)-4,5-dichloro-2-methoxyphenyl]ethyl}-9H-purin-6-amine]: the IC50 was below 100 nM in experiment [1] and below 50 nM at PI3Kδ (p110δ/p85α).

With `COc1c(C(C)Nc2ncnc3[nH]cnc23)cc(Cl)c(Cl)c1C1CN(CCO)C1` (stereo not shown) [Example 196, 2-(3-{2,3-Dichloro-6-methoxy-5-[1-(9H-purin-6-ylamino)ethyl]phenyl}azetidin-1-yl)ethanol bis(trifluoroacetate)], the figures for the IC50 (in experiment [1]; against PI3Kδ (p110δ/p85α)) were below 100 nM and below 50 nM, respectively.

`COc1c(C(C)Nc2ncnc3[nH]cnc23)cc(Cl)c(Cl)c1C1CN(C2CCOC2)C1` (stereo not shown) [Example 197, N-(1-{4,5-Dichloro-2-methoxy-3-[1-(tetrahydrofuran-3-yl)azetidin-3-yl]phenyl}ethyl)-9H-purin-6-amine bistrifluoroacetate]: the IC50 was below 100 nM in experiment [1] and below 50 nM against PI3Kδ (p110δ/p85α).

Turning to `COc1c(C(C)Nc2ncnc3[nH]cnc23)cc(Cl)c(Cl)c1C1CN(C)C1` (stereo not shown) [Example 199, N-{1-[4,5-Dichloro-2-methoxy-3-(1-methylazetidin-3-yl)phenyl]ethyl}-9H-purin-6-amine], the IC50 in experiment [1] was below 100 nM; at PI3Kδ (p110δ/p85α) it was below 50 nM.

Regarding `COCCN1CC(c2c(Cl)c(Cl)cc(C(C)Nc3ncnc4[nH]cnc34)c2OC)C1` (stereo not shown) [Example 200, N-(1-{4,5-Dichloro-2-methoxy-3-[1-(2-methoxyethyl)azetidin-3-yl]phenyl}ethyl)-9H-purin-6-amine], the IC50 in experiment [1] was below 100 nM; at PI3Kδ (p110δ/p85α) it was below 50 nM.

On to `COc1c(C(C)Nc2ncnc3[nH]cnc23)cc(Cl)c(Cl)c1C1CN(CC2CC2)C1` (stereo not shown) [Example 201, N-(1-{4,5-Dichloro-3-[1-(cyclopropylmethyl)azetidin-3-yl]-2-methoxyphenyl}ethyl)-9H-purin-6-amine], for which the figures for the IC50 (in experiment [1]; against PI3Kδ (p110δ/p85α)) were below 100 nM and below 50 nM, respectively.

Take `COc1c(C(C)Nc2ncnc3[nH]cnc23)cc(Cl)c(Cl)c1C1CN(CC2CCOC2)C1` (stereo not shown) [Example 202, N-(1-{4,5-dichloro-2-methoxy-3-[1-(tetrahydrofuran-3-ylmethyl)azetidin-3-yl]phenyl}ethyl)-9H-purin-6-amine]: the IC50 in experiment [1] was below 100 nM; on PI3Kδ (p110δ/p85α), below 50 nM.

For `COc1c(C(C)Nc2ncnc3[nH]cnc23)cc(Cl)c(Cl)c1C1CN(CCCC(F)(F)F)C1` (stereo not shown) [Example 203, N-(1-{4,5-Dichloro-2-methoxy-3-[1-(4,4,4-trifluorobutyl)azetidin-3-yl]phenyl}ethyl)-9H-purin-6-amine], the figures for the IC50 (in experiment [1]; against PI3Kδ (p110δ/p85α)) were below 100 nM and below 50 nM, respectively.

As to `COc1c(C(C)Nc2ncnc3[nH]cnc23)cc(Cl)c(Cl)c1C1CN(Cc2cscn2)C1` (stereo not shown) [Example 204, N-(1-{4,5-Dichloro-2-methoxy-3-[1-(1,3-thiazol-4-ylmethyl)azetidin-3-yl]phenyl}ethyl)-9H-purin-6-amine], the IC50 in experiment [1] is below 100 nM; against PI3Kδ (p110δ/p85α), below 50 nM.

As for `COc1c(C(C)Nc2ncnc3[nH]cnc23)cc(Cl)c(Cl)c1C1CN(CCC(F)(F)F)C1` (stereo not shown) [Example 205, N-(1-{4,5-Dichloro-2-methoxy-3-[1-(3,3,3-trifluoropropyl)azetidin-3-yl]phenyl}ethyl)-9H-purin-6-amine], the IC50 in experiment [1] was below 100 nM; against PI3Kδ (p110δ/p85α), below 50 nM.

Take `COc1c(C(C)Nc2ncnc3[nH]cnc23)cc(Cl)c(Cl)c1C1CN(C(C)CO)C1` (stereo not drawn) [Example 208, 2-(3-{2,3-Dichloro-6-methoxy-5-[1-(9H-purin-6-ylamino)ethyl]phenyl}azetidin-l-yl)propan-1-ol bistrifluoroacetate]: the IC50 was below 100 nM in experiment [1] and below 50 nM on PI3Kδ (p110δ/p85α).

As to `CCOc1c(C(C)Nc2ncnc3[nH]cnc23)cc(C#N)c(F)c1-c1cncc(S(C)(=O)=O)c1` (stereo not shown) [Example 212, 4-Ethoxy-2-fluoro-3-[5-(methylsulfonyl)pyridin-3-yl]-5-[1-(9H-purin-6-ylamino)ethyl]benzonitrile bis(trifluoroacetate)], the IC50 in experiment [1] is 100 to 500 nM; on PI3Kδ (p110δ/p85α) it was below 50 nM.

Regarding `CCOc1c(C(C)Nc2ncnc3[nH]cnc23)cc(Cl)c(C#N)c1C1CN(CC)C1` (stereo not shown) [Example 213, 6-Chloro-3-ethoxy-2-(1-ethylazetidin-3-yl)-4-[1-(9H-purin-6-ylamino)ethyl]benzonitrile bis(trifluoroacetate)], the IC50 is below 100 nM in experiment [1] and below 50 nM on PI3Kδ (p110δ/p85α).
